Source: patent US11969428B2, “Methods and pharmaceutical compositions for treating lymphoid malignancy” (priority 2011, dated 2024)
pIC50: −log10 of the molar value.

Assays:
PI3Kα = PI3Kα isoform selective cell-based assay (PDGF-stimulated SW3T3 cells, P-Akt); settings: compared to pan-PI3K/mTOR inhibitor BEZ235
Procedure: For the analysis of p110α-mediated signaling, SW3T3 cells were placed in serum free media (3 hours) and incubated with either CAL-130 or the Pan-PI3K/mTor inhibitor BEZ235 (Selleck Chemicals) for 1 hour prior to stimulation with PDGF (10 ng/ml; Cell Signaling) for 10 minutes at 37° C. After washing once in cold phosphate-buffered saline (PBS), the cell pellet was resuspended in lysis buffer (50 mM HEPES [N-2-hydroxyethylpiperazine-N-2-ethanesulfonic acid], pH 7.4, 150 mM NaCl, 10% glycerol, 1% Triton X-100, 1.5 mM MgCl2, 1 mM EGTA [ethylene glycol tetraacetic acid], 100 mM NaF, 1 mM phenylmethylsulfonyl fluoride, 1 mM NaVO4, 1 μg/ml leupeptin, and 1 μg/ml aprotinin) for 15 minutes on ice. Whole-cell lysates were obtained by centrifugation, and the soluble protein analyzed by Western blotting for Akt and P-Akt levels. Quantification was done using the Li-COR Odyssey imaging system.

MYO3A = target: T1, MYO3A (Homo sapiens, UniProt Q8NEV4); assay: Ambit KinomeScan screening; assay type: binding; settings: CAL-130 10 μM
T1 construct: unspecified tag; purchased Ambit (KinomeScan screening panel)
Procedure: (§1) CAL-130 (10 μM) was evaluated for its ability to prevent tagged kinases from interacting with immobilized “bait” ligand (Karaman et al., 2008). Results are reported as “% of control binding”, where lower numbers indicate stronger interactions with the tagged kinase. Values of >35% are considered “no hits”. PI3Kδ had the lowest percentage of control binding at 0.2% followed by PI3Kγ at 3.2% (See Table 1 below). These values indicate a high probability of a potent interaction. 353 kinases were assessed in the screen (Table 2).

GAK = target: T2, GAK (Homo sapiens, UniProt O14976); assay: Ambit KinomeScan screening; assay type: binding; settings: CAL-130 10 μM
T2 construct: unspecified tag ('tagged kinases'); purchased Ambit (KinomeScan screening service)
Procedure: as §1

CDK3 = target: T3, CDK3 (Homo sapiens, UniProt Q00526); assay: Ambit KinomeScan screening; assay type: binding; settings: CAL-130 10 μM
T3 construct: purchased Ambit (KinomeScan screening)
Procedure: as §1

MAP4K4 = target: T4, MAP4K4 (Homo sapiens, UniProt O95819); assay: Ambit KinomeScan screening; assay type: binding; settings: CAL-130 10 μM
T4 construct: Ambit (KinomeScan screening)
Procedure: as §1

RIPK1 = target: T5, RIPK1 (Homo sapiens, UniProt Q13546); assay: Ambit KinomeScan screening; assay type: binding; settings: CAL-130 10 μM
T5 construct: unspecified tag (tagged kinase); purchased Ambit (KinomeScan screening)
Procedure: as §1

JAK3(JH1domain) = target: T6, JAK3(JH1domain) (Homo sapiens, UniProt P52333); assay: Ambit KinomeScan screening; assay type: binding; settings: CAL-130 10 μM
T6 construct: JAK3(JH1domain); purchased Ambit (KinomeScan screening)
Procedure: as §1

FYN = target: T7, FYN (Homo sapiens, UniProt P06241); assay: Ambit KinomeScan screening; assay type: binding; settings: CAL-130 10 μM
T7 construct: unspecified tag ('tagged kinases'); purchased Ambit (KinomeScan screening service)
Procedure: as §1

IKK-β = target: T8, IKK-β (Homo sapiens, UniProt O14920); assay: Ambit KinomeScan screening; assay type: binding; settings: CAL-130 10 μM
T8 construct: Ambit (KinomeScan screening)
Procedure: as §1

PAK2 = target: T9, PAK2 (Homo sapiens, UniProt Q13177); assay: Ambit KinomeScan screening; assay type: binding; settings: CAL-130 10 μM
T9 construct: purchased Ambit (KinomeScan screening service)
Procedure: as §1

YANK3 = target: T10, YANK3 (Homo sapiens, UniProt Q86UX6); assay: Ambit KinomeScan screening; assay type: binding; settings: CAL-130 10 μM
T10 construct: purchased Ambit (KinomeScan screening service)
Procedure: as §1

MKNK2 = target: T11, MKNK2 (Homo sapiens, UniProt Q9HBH9); assay: Ambit KinomeScan screening; assay type: binding; settings: CAL-130 10 μM
T11 construct: unspecified tag ('tagged kinases'); purchased Ambit (KinomeScan screening)
Procedure: as §1

DAPK3 = target: T12, DAPK3 (Homo sapiens, UniProt O43293); assay: Ambit KinomeScan screening; assay type: binding; settings: CAL-130 10 μM
T12 construct: unspecified tag ("tagged kinases"); purchased Ambit (KinomeScan screening service)
Procedure: as §1

RET(V804L) = target: T13, RET(V804L) (Homo sapiens, UniProt P07949, V804L); assay: Ambit KinomeScan screening; assay type: binding; settings: CAL-130 10 μM
T13 construct: tag (kind not specified); purchased Ambit (KinomeScan screening service)
Procedure: as §1

MYLK = target: T14, MYLK (Homo sapiens, UniProt Q15746); assay: Ambit KinomeScan screening; assay type: binding; settings: CAL-130 10 μM
T14 construct: unspecified tag; purchased Ambit (KinomeScan screening panel)
Procedure: as §1

EPHB3 = target: T15, EPHB3 (Homo sapiens, UniProt P54753); assay: Ambit KinomeScan screening; assay type: binding; settings: CAL-130 10 μM
T15 construct: purchased Ambit (KinomeScan screening service)
Procedure: as §1

CSNK2A1 = target: T16, CSNK2A1 (Homo sapiens, UniProt P68400); assay: Ambit KinomeScan screening; assay type: binding; settings: CAL-130 10 μM
T16 construct: purchased Ambit (KinomeScan screening service)
Procedure: as §1

CCRF-CEM cells = assay: Cell proliferation and apoptosis (cell counting, Annexin V); assay type: cell-based, human; settings: CCRF-CEM
Procedure: Cell proliferation of CCRF-CEM cells or shRNA transfected CCRF-CEM cells, in the presence or absence of appropriate drug, was followed by cell counting of samples in triplicate using a hemocytometer and trypan blue. For apoptosis determinations of untransfected or shRNA transfected CCRF-CEMs, cells were stained with APC-conjugated Annexin-V (BD Biosciences) in Annexin Binding Buffer (Miltyeni Biotec) and analyzed by flow cytometry. For primary T-ALL samples, cell viability was assessed using the BD Cell Viability kit (BD Biosciences) coupled with the use of fluorescent counting beads as previously described (Armstrong et al., 2009). For this, cells were plated with MS5-DL1 stroma cells, and after 72 hours following drug treatment cells were harvested and stained with an APC-conjugated anti-human CD45 followed by a staining with the above kit according to the manufacturer's instructions.

p110γ = p110γ (Homo sapiens, UniProt P48736); assay: ex-vivo PI3 kinase assay using recombinant PI3K; assay type: biochemical; settings: ATP at Km
Procedure: (§2) CAL-130 is a derivative of IC87114 (Gilead Sciences, Foster City, CA), the synthesis of which has been previously described (Sadhu et al., 2003 and Sadhu et al., U.S. Pat. Nos. 6,518,277 and 6,667,300, which are incorporated by reference as if recited in full herein). […] values for CAL-130 inhibition of PI3K isoforms were determined in ex-vivo PI3 kinase assays using recombinant PI3K. A 10-point kinase inhibitory profile was determined with ATP at a concentration consistent with the Km for each enzyme (Puri et al., 2004).

p110β = p110β (Homo sapiens, UniProt P42338); assay: ex-vivo PI3 kinase assay using recombinant PI3K; assay type: biochemical; settings: ATP at Km
Procedure: as §2

p110δ = p110δ (Homo sapiens, UniProt O00329); assay: ex-vivo PI3 kinase assay using recombinant PI3K; assay type: biochemical; settings: ATP at Km
Procedure: as §2

p110α = p110α (Homo sapiens, UniProt P42336); assay: ex-vivo PI3 kinase assay using recombinant PI3K; assay type: biochemical; settings: ATP at Km
Procedure: as §2

[1] = within 24 hours, persisted over 4 days

T1 sequence (Q8NEV4 whole entry): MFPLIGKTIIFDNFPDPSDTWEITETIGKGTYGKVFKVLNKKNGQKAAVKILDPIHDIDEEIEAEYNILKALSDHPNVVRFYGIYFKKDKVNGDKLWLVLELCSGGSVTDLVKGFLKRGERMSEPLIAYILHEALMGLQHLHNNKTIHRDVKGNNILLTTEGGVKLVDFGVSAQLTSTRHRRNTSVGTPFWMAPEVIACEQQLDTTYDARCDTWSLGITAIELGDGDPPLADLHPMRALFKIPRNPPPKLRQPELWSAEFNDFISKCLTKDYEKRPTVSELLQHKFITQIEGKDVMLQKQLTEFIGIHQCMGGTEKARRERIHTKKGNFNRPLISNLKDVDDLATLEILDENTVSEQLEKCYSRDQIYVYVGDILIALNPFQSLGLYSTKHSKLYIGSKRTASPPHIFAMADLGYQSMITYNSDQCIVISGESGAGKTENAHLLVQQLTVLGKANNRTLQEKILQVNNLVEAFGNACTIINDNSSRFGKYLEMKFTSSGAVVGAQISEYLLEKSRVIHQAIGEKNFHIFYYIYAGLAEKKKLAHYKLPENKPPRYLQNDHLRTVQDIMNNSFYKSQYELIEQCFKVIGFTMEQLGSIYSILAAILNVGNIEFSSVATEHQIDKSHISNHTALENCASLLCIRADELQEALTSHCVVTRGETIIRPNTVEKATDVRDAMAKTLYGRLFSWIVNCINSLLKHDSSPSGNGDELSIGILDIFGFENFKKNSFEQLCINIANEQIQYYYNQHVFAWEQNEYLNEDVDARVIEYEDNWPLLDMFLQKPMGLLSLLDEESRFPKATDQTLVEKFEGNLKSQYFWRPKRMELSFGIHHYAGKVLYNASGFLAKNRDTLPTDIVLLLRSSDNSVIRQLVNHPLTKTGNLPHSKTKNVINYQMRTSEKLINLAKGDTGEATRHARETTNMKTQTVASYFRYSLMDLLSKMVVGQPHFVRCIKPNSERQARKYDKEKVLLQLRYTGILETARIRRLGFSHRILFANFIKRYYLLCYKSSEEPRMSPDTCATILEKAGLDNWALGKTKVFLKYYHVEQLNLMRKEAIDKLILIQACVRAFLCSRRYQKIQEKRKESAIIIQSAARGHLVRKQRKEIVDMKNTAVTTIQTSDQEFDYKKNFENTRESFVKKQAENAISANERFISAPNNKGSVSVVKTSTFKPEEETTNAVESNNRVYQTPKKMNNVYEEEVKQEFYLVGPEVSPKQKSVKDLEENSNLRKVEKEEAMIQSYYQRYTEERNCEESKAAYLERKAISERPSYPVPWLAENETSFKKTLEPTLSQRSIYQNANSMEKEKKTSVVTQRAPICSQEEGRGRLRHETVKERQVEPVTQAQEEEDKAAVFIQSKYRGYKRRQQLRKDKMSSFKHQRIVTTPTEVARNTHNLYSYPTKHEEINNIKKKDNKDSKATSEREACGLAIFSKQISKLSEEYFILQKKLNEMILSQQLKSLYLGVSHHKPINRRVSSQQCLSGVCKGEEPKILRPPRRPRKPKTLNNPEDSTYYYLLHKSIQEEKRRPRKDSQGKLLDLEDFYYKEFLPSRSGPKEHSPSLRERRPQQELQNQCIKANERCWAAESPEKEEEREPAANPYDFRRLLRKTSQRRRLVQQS
T12 sequence (O43293 whole entry): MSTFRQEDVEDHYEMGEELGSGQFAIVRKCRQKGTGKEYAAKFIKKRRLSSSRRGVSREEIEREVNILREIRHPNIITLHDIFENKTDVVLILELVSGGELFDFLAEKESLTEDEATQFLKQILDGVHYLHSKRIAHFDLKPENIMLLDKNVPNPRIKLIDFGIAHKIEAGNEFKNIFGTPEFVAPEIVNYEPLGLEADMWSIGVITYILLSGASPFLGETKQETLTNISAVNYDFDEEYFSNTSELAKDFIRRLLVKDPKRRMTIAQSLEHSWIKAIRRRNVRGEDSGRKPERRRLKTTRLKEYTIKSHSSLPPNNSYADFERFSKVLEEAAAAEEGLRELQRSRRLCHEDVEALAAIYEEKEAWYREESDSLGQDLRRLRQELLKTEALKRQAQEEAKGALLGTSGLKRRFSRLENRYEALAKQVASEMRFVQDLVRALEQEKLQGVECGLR
T7 sequence (P06241 whole entry): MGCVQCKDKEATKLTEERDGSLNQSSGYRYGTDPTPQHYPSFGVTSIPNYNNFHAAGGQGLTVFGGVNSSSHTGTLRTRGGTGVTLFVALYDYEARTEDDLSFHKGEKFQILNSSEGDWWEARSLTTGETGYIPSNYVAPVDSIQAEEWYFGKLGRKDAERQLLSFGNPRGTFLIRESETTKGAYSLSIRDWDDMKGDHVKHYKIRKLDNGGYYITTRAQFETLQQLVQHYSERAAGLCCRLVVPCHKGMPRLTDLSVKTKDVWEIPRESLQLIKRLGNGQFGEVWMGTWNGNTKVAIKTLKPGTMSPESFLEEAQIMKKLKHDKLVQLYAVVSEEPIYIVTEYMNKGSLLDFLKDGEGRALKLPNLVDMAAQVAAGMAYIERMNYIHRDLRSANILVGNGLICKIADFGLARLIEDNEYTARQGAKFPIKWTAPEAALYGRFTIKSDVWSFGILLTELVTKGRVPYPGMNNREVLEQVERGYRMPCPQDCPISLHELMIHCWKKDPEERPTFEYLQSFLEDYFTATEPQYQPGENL
p110γ, sequence (P48736 whole entry, species assumed, canonical isoform): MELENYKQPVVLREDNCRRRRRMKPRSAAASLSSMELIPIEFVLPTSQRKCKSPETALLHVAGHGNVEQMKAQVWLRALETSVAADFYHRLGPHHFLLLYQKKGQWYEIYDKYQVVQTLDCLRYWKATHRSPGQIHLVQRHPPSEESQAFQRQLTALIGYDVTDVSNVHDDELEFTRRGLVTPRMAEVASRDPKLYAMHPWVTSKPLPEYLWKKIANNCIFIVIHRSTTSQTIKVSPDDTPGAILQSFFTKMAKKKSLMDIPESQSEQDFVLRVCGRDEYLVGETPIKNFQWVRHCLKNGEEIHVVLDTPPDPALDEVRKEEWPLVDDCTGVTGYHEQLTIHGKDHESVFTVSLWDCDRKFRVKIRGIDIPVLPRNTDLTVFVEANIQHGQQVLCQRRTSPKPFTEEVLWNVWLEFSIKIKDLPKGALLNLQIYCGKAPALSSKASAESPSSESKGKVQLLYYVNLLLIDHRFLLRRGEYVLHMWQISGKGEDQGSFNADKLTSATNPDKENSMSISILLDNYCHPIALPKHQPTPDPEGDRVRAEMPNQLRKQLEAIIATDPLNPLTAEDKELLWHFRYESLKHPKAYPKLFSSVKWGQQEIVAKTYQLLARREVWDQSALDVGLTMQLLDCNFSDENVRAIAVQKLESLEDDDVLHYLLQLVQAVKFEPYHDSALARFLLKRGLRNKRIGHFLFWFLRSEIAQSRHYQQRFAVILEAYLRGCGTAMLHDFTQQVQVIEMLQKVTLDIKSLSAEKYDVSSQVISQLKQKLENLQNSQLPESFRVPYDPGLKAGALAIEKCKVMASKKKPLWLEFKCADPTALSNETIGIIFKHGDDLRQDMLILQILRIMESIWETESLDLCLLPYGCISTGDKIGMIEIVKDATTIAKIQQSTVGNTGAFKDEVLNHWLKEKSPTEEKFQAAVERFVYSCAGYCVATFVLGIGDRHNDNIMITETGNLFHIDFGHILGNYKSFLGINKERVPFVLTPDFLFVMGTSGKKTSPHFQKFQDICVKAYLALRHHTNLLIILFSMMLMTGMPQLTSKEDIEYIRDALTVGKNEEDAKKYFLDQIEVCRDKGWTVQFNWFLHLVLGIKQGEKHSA
T15 sequence (P54753 34-998): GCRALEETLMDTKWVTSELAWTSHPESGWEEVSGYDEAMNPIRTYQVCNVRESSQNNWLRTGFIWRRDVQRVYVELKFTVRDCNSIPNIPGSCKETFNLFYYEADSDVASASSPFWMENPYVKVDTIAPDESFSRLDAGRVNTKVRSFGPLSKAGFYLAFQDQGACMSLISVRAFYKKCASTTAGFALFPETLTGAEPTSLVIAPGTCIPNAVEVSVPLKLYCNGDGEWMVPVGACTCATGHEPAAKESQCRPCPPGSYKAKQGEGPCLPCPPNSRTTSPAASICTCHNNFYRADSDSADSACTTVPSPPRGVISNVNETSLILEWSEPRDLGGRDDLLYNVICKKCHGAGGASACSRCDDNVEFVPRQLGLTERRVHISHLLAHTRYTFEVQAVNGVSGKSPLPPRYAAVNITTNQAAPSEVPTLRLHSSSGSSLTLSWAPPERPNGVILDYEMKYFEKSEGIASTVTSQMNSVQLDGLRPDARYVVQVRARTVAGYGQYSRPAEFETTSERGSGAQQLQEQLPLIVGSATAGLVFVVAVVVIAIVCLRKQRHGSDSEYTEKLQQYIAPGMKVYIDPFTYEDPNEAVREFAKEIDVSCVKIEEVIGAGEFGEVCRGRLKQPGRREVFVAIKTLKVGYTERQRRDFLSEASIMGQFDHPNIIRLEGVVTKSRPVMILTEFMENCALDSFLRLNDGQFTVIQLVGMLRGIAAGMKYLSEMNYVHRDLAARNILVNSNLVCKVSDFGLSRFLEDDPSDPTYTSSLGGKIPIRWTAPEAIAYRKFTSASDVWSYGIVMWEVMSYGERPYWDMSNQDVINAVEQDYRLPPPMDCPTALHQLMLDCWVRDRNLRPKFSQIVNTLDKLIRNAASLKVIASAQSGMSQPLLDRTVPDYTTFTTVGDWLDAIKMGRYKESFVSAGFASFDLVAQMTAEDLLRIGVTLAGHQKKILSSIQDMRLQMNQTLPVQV
T16 sequence (P68400 whole entry): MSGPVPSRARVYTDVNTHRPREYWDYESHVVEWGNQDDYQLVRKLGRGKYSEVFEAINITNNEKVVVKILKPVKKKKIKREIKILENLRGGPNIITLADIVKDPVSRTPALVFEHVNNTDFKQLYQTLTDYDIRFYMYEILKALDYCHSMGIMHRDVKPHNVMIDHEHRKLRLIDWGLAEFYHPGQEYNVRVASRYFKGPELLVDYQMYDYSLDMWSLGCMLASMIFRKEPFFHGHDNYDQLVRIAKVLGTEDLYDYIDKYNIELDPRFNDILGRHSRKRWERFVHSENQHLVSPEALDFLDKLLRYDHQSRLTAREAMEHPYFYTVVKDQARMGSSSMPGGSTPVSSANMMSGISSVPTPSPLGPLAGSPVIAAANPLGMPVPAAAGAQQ

## Cc1ccccc1-n1c(C(C)Nc2nc(N)nc3nc[nH]c23)nc2cccc(C)c2c1=O (stereo not drawn) [CAL-130]
PI3Kα
  PDGF-induced activation of PI3Kα (Akt phosphorylation): limited ability to impair
MYO3A
  Percent of Control Binding: 100%
GAK
  Percent of Control Binding: 100%
CDK3
  Percent of Control Binding: 100%
MAP4K4
  Percent of Control Binding: 100%
RIPK1
  Percent of Control Binding: 100%
JAK3(JH1domain)
  Percent of Control Binding: 100%
FYN
  Percent of Control Binding: 100%
IKK-β
  Percent of Control Binding: 100%
PAK2
  Percent of Control Binding: 100%
YANK3
  Percent of Control Binding: 100%
MKNK2
  Percent of Control Binding: 16%
DAPK3
  Percent of Control Binding: 100%
RET(V804L)
  Percent of Control Binding: 100%
MYLK
  Percent of Control Binding: 100%
EPHB3
  Percent of Control Binding: 100%
CSNK2A1
  Percent of Control Binding: 100%
CCRF-CEM cells; dexamethasone in combination with 2.5 μM CAL-130
  apoptotic properties of dexamethasone: significantly enhanced
CCRF-CEM cells; [1]
  apoptosis: promoted apoptosis
  proliferation: prevented proliferation
p110γ
  pIC50: 8.21
p110β
  pIC50: 7.25
p110δ
  pIC50: 8.89
p110α
  pIC50: 6.94
